Data taken from patent US11174271B2, “6-membered uracil isosteres” (CV6 Therapeutics (NI) Limited, priority 2016, dated 2021).

Molecular target: T1, recombinant human deoxyuridine nucleotidohydrolase (dUTPase) (Homo sapiens, UniProt P33316)
T1 construct: made in house
T1 sequence (P33316 1-164 isoform P33316-2): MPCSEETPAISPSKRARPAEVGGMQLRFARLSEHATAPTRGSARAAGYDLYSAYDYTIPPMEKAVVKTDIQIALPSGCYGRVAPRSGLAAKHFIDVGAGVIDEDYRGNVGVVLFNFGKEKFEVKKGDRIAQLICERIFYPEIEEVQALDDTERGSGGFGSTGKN
Experiment: fluorescence-based dUTPase inhibition assay (DNA polymerase-based dUTP detection)
Format: biochemical
Settings: mean across three concentrations, typically 100, 50 and 25 μmol/L, compared to the in-run positive control
From the text: Recombinant human deoxyuridine nucleotidohydrolase (dUTPase) is expressed and purified as described in Ladner R D, Carr S A, Huddleston M J, McNulty D E, Caradonna S J. J Biol Chem. 1996 Mar. 29; 271(13):7752-7. All drugs stocks are aliquoted and diluted as appropriate prior to use. The oligonucelotide primer, templates and fluorophore- and quencher-labeled detection probes are synthesized by Integrated DNA Technologies (Coralville, Iowa), subjected to polyacrylamide gel electrophoresis purification and reconstituted in Omnipur sterile nuclease-free water (EMD Chemicals USA, Gibbstown N.J.) at a stock concentration of 100 μmol/L. The two non-emissive (dark) quenching molecules incorporated into the detection probes include the Iowa black fluorescein quencher (IBFQ; absorption max 531 nm) and ZEN (non-abbreviation; absorption max 532 nm). The fluorescent label utilized is 6-FAM (5′-carboxyfluorescein; excitation max.=494 nm, emission max.=520 nm). Probes are further diluted to a working stock of 10 μmol/L and aliquoted to avoid repeated freeze/thaw cycles. AmpliTaq Gold DNA Polymerase, GeneAmp 10×PCR Buffer 2, MgCl2 and MicroAmp Optical 96-well Reaction Plates are purchased from Applied Biosystems (Carlsbad, Calif.). dNTPs are purchased individually at stock concentrations of 100 mmol/L from New England Biolabs at HPLC-certified >99% purity (Ipswich, Mass.).
Reaction mixtures contained primer, probe and template at an equimolar final concentration of 0.4 μmol/L. Magnesium chloride (MgCl2) is included at a final concentration of 2 mmol/L. Non-limiting dNTPs are included in the reaction mix in excess at a final concentration of 100 μmol/L (dUTP/dTTP is excluded). AmpliTaq Gold DNA polymerase is added at 0.875 U/reaction, 2.5 μl of 10×PCR buffer 2 added and nuclease-free ddH2O added to a final reaction volume of 25 μl. For dUTP inhibition analysis, the volume of ddH2O is further modified to accommodate an additional 1 μl of dUTPase (10 ng/μl) and 1 μl of inhibitor or DMSO control. Thermal profiling and fluorescence detection is performed using a customized thermal program on board a Roche Lightcycler LC480 Instrument II. For analysis of dNTPs, the thermal profile consisted of an 8 min 37° C. step followed by a 10 min 95° C. step to ‘hot-start’ the Taq polymerase and a primer extension time of up to 30 min at 60° C. Raw fluorescence spectra for 6-FAM is measured at specified time intervals to follow assay progression on board a Roche LightCycler 480 Software Version 1.5 and exported and analyzed in Microsoft Excel (Microsoft, Redmond Wash.) and Prism (GraphPad Software, La Jolla Calif.). Fluorescence values for blank reactions (limiting dNTP omitted) are subtracted to give normalized fluorescence units (NFU) to account for background fluorescence.
Test compounds were screened in a fluorescence-based assay. The assay employed a DNA polymerase-based approach utilizing an oligonucleotide template with 3 distinct regions: a 3′ primer binding region, a mid-template dUTP/thymidine triphosphate (TTP) detection region and a 5′ 6-[…] (FAM)-labeled probe binding region that incorporates a black hole quenching moiety. During the reaction, the probe and primer hybridize to the oligonucleotide template to form the template:primer:probe complex. When Taq polymerase binds to the primer in the TPP complex and dUTP is present, successful extension of the nascent strand occurs and the inherent 5′ to 3′ exonuclease activity of Taq polymerase cleaves and displaces the 6-FAM-labeled probe in a 5′ to 3′ direction, releasing the 6-FAM fluorophore from its proximity to the […]. This displacement effectively disrupts the Förster resonance energy transfer (FRET) and the resulting fluorescence detected upon excitation is directly proportional to the amount of the dUTP available in the assay for incorporation. […]

Row | SMILES | % relative inhibition vs. positive control [%] | other results
1 | CC(C)(NS(=O)(=O)CC/C=C/CC1CCC(=O)NC1=O)c1ccc(F)c(OCC2CC2)c1 (single isomer, unassigned) [Example 79 trans isomer 1, (E)-N-(2-(3-(cyclopropylmethoxy)-4-fluorophenyl)propan-2-yl)-5-(2,6-dioxopiperidin-3-yl)pent-3-ene-1-sulfonamide] |  | % relative inhibition vs. positive control (listed as 79 trans isomer 1): 22%
2 | CC(C)(NS(=O)(=O)CC/C=C/CC1CCC(=O)NC1=O)c1ccc(F)c(OCC2CC2)c1 (single isomer, unassigned) [Example 79 trans isomer 2, (E)-N-(2-(3-(cyclopropylmethoxy)-4-fluorophenyl)propan-2-yl)-5-(2,6-dioxopiperidin-3-yl)pent-3-ene-1-sulfonamide] |  | % relative inhibition vs. positive control (listed as 79 trans isomer 2): 51%
3 | CC(C)(NS(=O)(=O)CCCCCC1CCC(=O)NC1=O)c1ccc(F)c(OCC2CC2)c1 (single isomer, unassigned) [Example 81 isomer 1, N-(2-(3-(cyclopropylmethoxy)-4-fluorophenyl)propan-2-yl)-5-(2,6-dioxopiperidin-3-yl)pentane-1-sulfonamide] |  | % relative inhibition vs. positive control (listed as 81 isomer 1): 16%
4 | CC(C)(NS(=O)(=O)CCCCCC1CCC(=O)NC1=O)c1ccc(F)c(OCC2CC2)c1 (single isomer, unassigned) [Example 81 isomer 2, N-(2-(3-(cyclopropylmethoxy)-4-fluorophenyl)propan-2-yl)-5-(2,6-dioxopiperidin-3-yl)pentane-1-sulfonamide] |  | % relative inhibition vs. positive control (listed as 81 isomer 2): 41%
5 | CC[C@@H](NS(=O)(=O)CC/C=C/CC1CCC(=O)NC1=O)c1ccc(F)c(OCC2CC2)c1 (single isomer, unassigned) [Example 88 trans isomer 1] |  | % relative inhibition vs. positive control (listed as 88 trans isomer 1): 10%
6 | CC[C@@H](NS(=O)(=O)CC/C=C/CC1CCC(=O)NC1=O)c1ccc(F)c(OCC2CC2)c1 (single isomer, unassigned) [Example 88 trans isomer 2] |  | % relative inhibition vs. positive control (listed as 88 trans isomer 2): 167%
7 | CC(C)(NS(=O)(=O)CCCCCC1CCC(=O)NC1=O)c1ccc(F)c(OCC2CC2)c1 (stereo not shown) [Example 81, N-(2-(3-(cyclopropylmethoxy)-4-fluorophenyl)propan-2-yl)-5-(2,6-dioxopiperidin-3-yl)pentane-1-sulfonamide] | 49 | 
8 | CC(C)(NS(=O)(=O)CC/C=C/CC1CCC(=O)NC1=O)c1cccc(OCC2CC2)c1 (stereo not shown) [Example 84, (E)-N-(2-(3-(cyclopropylmethoxy)phenyl)propan-2-yl)-5-(2,6-dioxopiperidin-3-yl)pent-3-ene-1-sulfonamide] | 22 | 
9 | CC(C)(NS(=O)(=O)CCCCCNC1CCC(=O)NC1=O)c1ccc(F)c(OCC2CC2)c1 (stereo not shown) [Example 85, N-(2-(3-(cyclopropylmethoxy)-4-fluorophenyl)propan-2-yl)-5-((2,6-dioxopiperidin-3-yl)amino)pentane-1-sulfonamide] | 11 | 
10 | CC[C@@H](NS(=O)(=O)CCCCCC1CCC(=O)NC1=O)c1ccc(F)c(OCC2CC2)c1 (stereo partly drawn) [Example 91, N—((R)-1-(3-(cyclopropylmethoxy)-4-fluorophenyl)propyl)-5-(2,6-dioxopiperidin-3-yl)pentane-1-sulfonamide] | 10 | 
11 | CC(C)(O)COc1cc(C2(NS(=O)(=O)CC/C=C/CN3CCC(=O)NC3=O)CC2)ccc1F [Example 92, (E)-5-(2,4-dioxotetrahydropyrimidin-1(2H)-yl)-N-(1-(4-fluoro-3-(2-hydroxy-2-methylpropoxy)phenyl)cyclopropyl)pent-3-ene-1-sulfonamide] | 81 | 

Second part, led by results:

Row | % relative inhibition vs. positive control [%] | SMILES | other results
12 | 70 | CC(C)(NS(=O)(=O)CC/C=C/CC1CCC(=O)NC1=O)c1ccc(F)c(OCC2CC2)c1 (stereo not shown) [Example 79, (E)-N-(2-(3-(cyclopropylmethoxy)-4-fluorophenyl)propan-2-yl)-5-(2,6-dioxopiperidin-3-yl)pent-3-ene-1-sulfonamide] | 
13 | 26 | CC(C)(NS(=O)(=O)C/C=C/CC1CCC(=O)NC1=O)c1ccc(F)c(OCC2CC2)c1 (stereo not shown) [Example 82, (E)-N-(2-(3-(cyclopropylmethoxy)-4-fluorophenyl)propan-2-yl)-4-(2,6-dioxopiperidin-3-yl)but-2-ene-1-sulfonamide] | 
14 | 45 | CC(C)(NS(=O)(=O)CCC/C=C/CC1CCC(=O)NC1=O)c1ccc(F)c(OCC2CC2)c1 (stereo not shown) [Example 83, (E)-N-(2-(3-(cyclopropylmethoxy)-4-fluorophenyl)propan-2-yl)-6-(2,6-dioxopiperidin-3-yl)hex-4-ene-1-sulfonamide] | 
15 | 6 | CC[C@@](O)(CNS(=O)(=O)CCCNC1CCC(=O)NC1=O)c1ccc(F)c(OCC2CC2)c1 (stereo partly drawn) [Example 86, N—((S)-2-(3-(cyclopropylmethoxy)-4-fluorophenyl)-2-hydroxybutyl)-3-((2,6-dioxopiperidin-3-yl)amino)propane-1-sulfonamide] | 
16 | 26 | CC(C)(NS(=O)(=O)C/C=C/CCC1CCC(=O)NC1=O)c1ccc(F)c(OCC2CC2)c1 (stereo not shown) [Example 87, (E)-N-(2-(3-(cyclopropylmethoxy)-4-fluorophenyl)propan-2-yl)-5-(2,6-dioxopiperidin-3-yl)pent-2-ene-1-sulfonamide] | 
17 | 80 | CC[C@@H](NS(=O)(=O)CC/C=C/CC1CCC(=O)NC1=O)c1ccc(F)c(OCC2CC2)c1 (stereo partly drawn) [Example 88, (E)-N—((R)-1-(3-(cyclopropylmethoxy)-4-fluorophenyl)propyl)-5-(2,6-dioxopiperidin-3-yl)pent-3-ene-1-sulfonamide] | 
18 | 65 | CC[C@@](O)(CNS(=O)(=O)C/C=C/CC1CCC(=O)NC1=O)c1ccc(F)c(OCC2CC2)c1 (stereo partly drawn) [Example 89, (E)-N—((S)-2-(3-(cyclopropylmethoxy)-4-fluorophenyl)-2-hydroxybutyl)-4-(2,6-dioxopiperidin-3-yl)but-2-ene-1-sulfonamide] | 
19 | 82 | CC[C@@](O)(CNS(=O)(=O)CCCCC1CCC(=O)NC1=O)c1ccc(F)c(OCC2CC2)c1 (stereo partly drawn) [Example 90, N—((S)-2-(3-(cyclopropylmethoxy)-4-fluorophenyl)-2-hydroxybutyl)-4-(2,6-dioxopiperidin-3-yl)butane-1-sulfonamide] | 
